{"source": "paper PMC10885651", "about": "(BMC Chemistry, 2024)", "key": {"[1]": {"system": "mushroom tyrosinase (EC 1.14.18.1)", "test": "Mushroom tyrosinase inhibition assay, L-Dopa as substrate (diphenolase activity, dopachrome at 490 nm)", "format": "biochemical", "conditions": "for % Inhibition at 80 µM: 80 µM compound; for % Inhibition at 80 µM / % Inhibition at 30 µM: mean of three independent experiments; for % Inhibition at 30 µM: 30 µM compound", "description": "We conducted the assay of mushroom tyrosinase (EC 1.14.18.1) utilizing L-Dopa as the substrate, as previously described, with minor adaptations. We employed a spectrophotometric technique to assess the enzyme's diphenolase activity, observing dopachrome formation at 490 nm. […] In a 96-well microplate, 10 µl of the test samples were combined with 140 µl of 50 mM phosphate buffer (pH = 6.8). Subsequently, 20 µl of tyrosinase (273 U mL^−1) was introduced. Following a pre-incubation period of 20 min at 28 °C, 20 µl of L-Dopa solution (resulting in a final concentration of 0.7 mM) was added to the mixture. Following a 10-min incubation, the absorbance of the samples was measured. The inhibitory activity of the tested compounds was stated as IC50. The ratio percentage of inhibition was calculated according to the equation below: Inhibition%=100Abscontrol-Abscompound/Abscontrol"}, "tyrosinase": {"molecular_target": "tyrosinase", "conditions": "Fig. 1; cited from earlier work"}, "mushroom tyrosinase": {"system": "mushroom tyrosinase", "test": "Kinetic study of tyrosinase inhibition (Lineweaver-Burk plots)", "format": "biochemical", "excerpt": "Mechanism and type of inhibition were elucidated through kinetic investigations. […] Lineweaver–Burk plots, depicting 1/V against 1/[S], were constructed to illustrate the inhibition of tyrosinase by 6b across varying concentrations of both 6b and L-Dopa, the substrate. In this context, Km represents the Michaelis–Menten constant, while Vmax signifies the maximum reaction velocity.\nBased on these findings, it can be inferred that the inhibitory effect of compound 6b is competitive.\nThe inhibitor concentrations employed ranged from 2 to 20 μM, while the substrate (L-Dopa) concentrations in the rane of 0.1 mM to 1.5 mM through all kinetic experiments. The pre-incubation and measurement durations followed the protocol outlined in the mushroom tyrosinase inhibition assay. The maximum initial velocity was ascertained from the initial linear segment of absorbance within a 10-min window following the introduction of L-Dopa, with measurements taken at 1-min intervals. Utilizing the Lineweaver–Burk plot technique, we calculated the Michaelis constant (Km) and the tyrosinase activity's maximal velocity (Vmax). This plot involved various L-Dopa concentrations as the substrate. For assessing the enzyme's inhibition type, we employed Lineweaver–Burk plots featuring the reciprocal of velocities (1/V) plotted against the reciprocal of substrate concentrations (1/[S] mM^−1)."}}, "data": [{"compound": "COc1cc(C2C(C#N)=C(N)Oc3c2oc(CO)cc3=O)ccc1OCc1ccc(F)cc1", "note": "(centres unmarked) [6l, 2-Amino-4-(4-((4-fluorobenzyl)oxy)-3-methoxyphenyl)-6-(hydroxymethyl)-8-oxo-4,8-dihydropyrano[3,2-b]pyran-3-carbonitrile]", "values": [{"measurement": "% Inhibition at 80 µM", "setting": "[1]", "value": "49.09 ± 4.91", "unit": "%"}]}, {"compound": "COc1cc(C2C(C#N)=C(N)Oc3c2oc(CO)cc3=O)ccc1OCc1ccc(C)cc1", "note": "(centres unmarked) [6o, 2-Amino-6-(hydroxymethyl)-4-(3-methoxy-4-((4-methylbenzyl)oxy)phenyl)-8-oxo-4,8 dihydropyrano[3,2-b]pyran-3-carbonitrile]", "values": [{"measurement": "% Inhibition at 80 µM", "setting": "[1]", "value": "44.31 ± 4.18", "unit": "%"}]}, {"compound": "COc1cc(C2C(C#N)=C(N)Oc3c2oc(CO)cc3=O)ccc1OCc1ccc(Br)cc1", "note": "(centres unmarked) [6n, 2-Amino-4-(4-((4-boromobenzyl)oxy)-3-methoxyphenyl)-6-(hydroxymethyl)-8-oxo-4,8-dihydropyrano[3,2-b]pyran-3-carbonitrile]", "values": [{"measurement": "% Inhibition at 80 µM", "setting": "[1]", "value": "21.36 ± 3.63", "unit": "%"}]}, {"compound": "Nn1c(SCc2cc(=O)c(O)co2)nnc1-c1ccc(Cl)cc1", "note": "[1a]", "values": [{"measurement": "IC50", "setting": "tyrosinase", "value": 4.5, "unit": "µM"}]}, {"compound": "2-Amino-4-(3-((para-tolyl)oxy)phenyl)-6-(hydroxymethyl)-8-oxo-4,8-dihydropyrano[3,2-b]pyran-3-carbonitrile [6j]", "values": [{"measurement": "tyrosinase inhibitory activity (in words)", "setting": "[1]", "value": "without any activity"}, {"measurement": "% Inhibition at 80 µM", "setting": "[1]", "value": "20.45 ± 4.54", "unit": "%"}]}, {"compound": "O=c1cc(CSc2nnc(-c3ccccc3)n2NCc2ccc(O)c(O)c2)occ1O", "note": "[1d]", "values": [{"measurement": "IC50", "setting": "tyrosinase", "value": 1.35, "unit": "µM"}]}, {"compound": "O=c1cc(/C=C/c2cc(=O)c(O)co2)occ1O", "note": "[1c]", "values": [{"measurement": "IC50", "setting": "tyrosinase", "value": 30.6, "unit": "µM"}]}, {"compound": "N#CC1=C(N)Oc2c(oc(CO)cc2=O)C1c1ccc(OCc2ccc(F)cc2)cc1", "note": "(centres unmarked) [6b, 2-Amino-4-(4-((4-fluorobenzyl)oxy)phenyl)-6-(hydroxymethyl)-8-oxo-4,8-dihydropyrano[3,2-b]pyran-3-carbonitrile]", "values": [{"measurement": "melting point", "value": "227 to 230", "unit": "°C"}, {"measurement": "type of inhibition", "setting": "mushroom tyrosinase; Lineweaver-Burk plot, Vmax constant, Km rising", "value": "competitive"}, {"measurement": "Ki", "setting": "mushroom tyrosinase; secondary plot of Km vs concentration of inhibitor, L-Dopa 0.1-1.5 mM, read-out: inhibition constant Ki", "value": 7.57, "unit": "µM"}, {"measurement": "IC50", "setting": "[1]", "value": "7.69 ± 1.99", "unit": "µM"}, {"measurement": "% Inhibition at 30 µM", "setting": "[1]", "value": "79.81 ± 6.18", "unit": "%"}, {"measurement": "% Inhibition at 80 µM", "setting": "[1]", "value": "89.27 ± 2.59", "unit": "%"}]}, {"compound": "N#CC1=C(N)Oc2c(oc(CO)cc2=O)C1c1ccc(OCc2ccc(Br)cc2)cc1", "note": "(centres unmarked) [6d, 2-Amino-4-(4-((4-bromobenzyl)oxy)phenyl)-6-(hydroxymethyl)-8-oxo-4,8 dihydropyrano[3,2-b]pyran-3-carbonitrile]", "values": [{"measurement": "melting point", "value": "214 to 216", "unit": "°C"}, {"measurement": "IC50", "setting": "[1]", "value": "34 ± 2.53", "unit": "µM"}, {"measurement": "% Inhibition at 30 µM", "setting": "[1]", "value": "48.86 ± 3.53", "unit": "%"}, {"measurement": "% Inhibition at 80 µM", "setting": "[1]", "value": "66.36 ± 3.64", "unit": "%"}]}, {"compound": "N#CC1=C(N)Oc2c(oc(CO)cc2=O)C1c1ccc(OCc2ccc(Cl)cc2)cc1", "note": "(centres unmarked) [6c, 2-Amino-4-(4-((4-chlorobenzyl)oxy)phenyl)-6-(hydroxymethyl)-8-oxo-4,8-dihydropyrano[3,2-b]pyran-3-carbonitrile]", "values": [{"measurement": "melting point", "value": "236 to 239", "unit": "°C"}, {"measurement": "IC50", "setting": "[1]", "value": "79.2 ± 3.3", "unit": "µM"}, {"measurement": "% Inhibition at 30 µM", "setting": "[1]", "value": "44.09 ± 2.94", "unit": "%"}, {"measurement": "% Inhibition at 80 µM", "setting": "[1]", "value": "50.01 ± 4.34", "unit": "%"}]}, {"compound": "N#CC1=C(N)Oc2c(oc(CO)cc2=O)C1c1cccc(OCc2ccccc2)c1", "note": "(centres unmarked) [6f, 2-Amino-4-(3-(benzyloxy)phenyl)-6-(hydroxymethyl)-8-oxo-4,8-dihydropyrano[3,2-b]pyran-3-carbonitrile]", "values": [{"measurement": "melting point", "value": "235 to 238", "unit": "°C"}, {"measurement": "tyrosinase inhibitory activity (in words)", "setting": "[1]", "value": "no inhibitory activity"}, {"measurement": "% Inhibition at 80 µM", "setting": "[1]", "value": "42.27 ± 2.72", "unit": "%"}]}, {"compound": "CC1(C)CC(=O)C2=C(C1)Oc1ncn3ncnc3c1C2c1ccccc1", "note": "(centres unmarked) [1f]", "values": [{"measurement": "Inhibition percentage", "setting": "tyrosinase", "value": 78, "unit": "%"}]}, {"compound": "Cc1ccc(COc2ccc(C3C(C#N)=C(N)Oc4c3oc(CO)cc4=O)cc2)cc1", "note": "(centres unmarked) [6e, 2-Amino-6-(hydroxymethyl)-4-(4-((4-methylbenzyl)oxy)phenyl)-8-oxo-4,8-dihydropyrano[3,2-b]pyran-3-carbonitrile]", "values": [{"measurement": "melting point", "value": "215 to 218", "unit": "°C"}, {"measurement": "% Inhibition at 80 µM", "setting": "[1]", "value": "48.63 ± 6.37", "unit": "%"}]}, {"compound": "N#CC1=C(N)Oc2c(oc(CO)cc2=O)C1c1cccc(OCc2ccc(F)cc2)c1", "note": "(centres unmarked) [6g, 2-Amino-4-(3-((4-fluorobenzyl)oxy)phenyl)-6-(hydroxymethyl)-8-oxo-4,8-dihydropyrano[3,2-b]pyran-3-carbonitrile]", "values": [{"measurement": "melting point", "value": "239 to 242", "unit": "°C"}, {"measurement": "IC50", "setting": "[1]", "value": "9.72 ± 2.47", "unit": "µM"}, {"measurement": "% Inhibition at 30 µM", "setting": "[1]", "value": "77.95 ± 4.54", "unit": "%"}, {"measurement": "% Inhibition at 80 µM", "setting": "[1]", "value": "88.63 ± 6.36", "unit": "%"}]}, {"compound": "COc1cc(C2C(C#N)=C(N)Oc3c2oc(CO)cc3=O)ccc1OCc1ccccc1", "note": "(centres unmarked) [6k, 2-Amino-4-(4-(benzyloxy)-3-methoxyphenyl)-6-(hydroxymethyl)-8-oxo-4,8 dihydropyrano[3,2-b]pyran-3-carbonitrile]", "values": [{"measurement": "% Inhibition at 80 µM", "setting": "[1]", "value": "10.25 ± 3.48", "unit": "%"}]}, {"compound": "CCOC(=O)C1=C(N)Oc2c(ccc3ccccc23)C1c1cccc(Cl)c1", "note": "(centres unmarked) [1e]", "values": [{"measurement": "IC50", "setting": "tyrosinase", "value": 34.1, "unit": "µM"}]}, {"compound": "N#CC1=C(N)Oc2c(oc(CO)cc2=O)C1c1cccc(OCc2ccc(Cl)cc2)c1", "note": "(centres unmarked) [6h, 2-Amino-4-(3-((4-chlorobenzyl)oxy)phenyl)-6-(hydroxymethyl)-8-oxo-4,8-dihydropyrano[3,2-b]pyran-3-carbonitrile]", "values": [{"measurement": "melting point", "value": "232 to 236", "unit": "°C"}, {"measurement": "IC50", "setting": "[1]", "value": "10.7 ± 4.96", "unit": "µM"}, {"measurement": "% Inhibition at 30 µM", "setting": "[1]", "value": "65.90 ± 5.09", "unit": "%"}, {"measurement": "% Inhibition at 80 µM", "setting": "[1]", "value": "67.95 ± 4.54", "unit": "%"}]}, {"compound": "O=c1cc(Cc2cn(Cc3cccc4ccccc34)nn2)occ1O", "note": "[1b]", "values": [{"measurement": "IC50", "setting": "tyrosinase", "value": 0.06, "unit": "µM"}]}, {"compound": "N#CC1=C(N)Oc2c(oc(CO)cc2=O)C1c1ccc(OCc2ccccc2)cc1", "note": "(centres unmarked) [6a, 2-Amino-4-(4-(benzyloxy)phenyl)-6-(hydroxymethyl)-8-oxo-4,8-dihydropyrano[3,2-b]pyran-3-carbonitrile]", "values": [{"measurement": "melting point", "value": "221 to 224", "unit": "°C"}, {"measurement": "tyrosinase inhibitory activity (in words)", "setting": "[1]", "value": "inactive"}, {"measurement": "% Inhibition at 80 µM", "setting": "[1]", "value": "47.90 ± 3.90", "unit": "%"}]}, {"compound": "N#CC1=C(N)Oc2c(oc(CO)cc2=O)C1c1cccc(OCc2ccc(Br)cc2)c1", "note": "(centres unmarked) [6i, 2-Amino-4-(3-((4-bromobenzyl)oxy)phenyl)-6-(hydroxymethyl)-8-oxo-4,8-dihydropyrano[3,2-b]pyran-3-carbonitrile]", "values": [{"measurement": "melting point", "value": "236 to 238", "unit": "°C"}, {"measurement": "IC50", "setting": "[1]", "value": "15.3 ± 3.17", "unit": "µM"}, {"measurement": "% Inhibition at 30 µM", "setting": "[1]", "value": "59.54 ± 5.44", "unit": "%"}, {"measurement": "% Inhibition at 80 µM", "setting": "[1]", "value": "67.72 ± 7.27", "unit": "%"}]}, {"compound": "COc1cc(C2C(C#N)=C(N)Oc3c2oc(CO)cc3=O)ccc1OCc1ccc(Cl)cc1", "note": "(centres unmarked) [6m, 2-Amino-4-(4-((4-cholorobenzyl)oxy)-3-methoxyphenyl)-6-(hydroxymethyl)-8-oxo-4,8-dihydropyrano[3,2-b]pyran-3-carbonitrile]", "values": [{"measurement": "% Inhibition at 80 µM", "setting": "[1]", "value": "49.31 ± 6.12", "unit": "%"}]}]}
